System: neutrophils
Test: Formation of NETs in neutrophils stimulated by cancer cell conditioned medium (immunofluorescence, MPO and Ci-H3)
Format: cell-based, mice
Details: CM of lung-/liver-metastatic breast cancer and bone-metastatic lung cancer cells, with or without brensocatib; FIGS. 11D, F, I
Description: To isolate neutrophil from bone marrow, bone marrow cells from 8 to 12-weeks-old BALB/c mice were harvested in sterile Hank's buffered salt solution (HBSS) without Ca^2+/Mg^2+ (14185052, Invitrogen), and laid on top of a 2-layer Percoll (17089102, GE Healthcare) gradient (72% and 63.5% in HBSS), followed by centrifugation at 1,200 g for 30 min at 25° C. Neutrophils enriched in the interface of 63.5%-72% fractions were confirmed to be of >95% purity by flow cytometry analysis. To isolate neutrophils from peripheral blood of mice, whole blood was collected via cardiac puncture (1 ml per animal) and suspended in HBSS (2 ml per animal) with 15 mM EDTA. After centrifugation (400 g, 10 min, 4° C.), white cells were resuspended in 2 ml HBSS with 2 mM EDTA. […] The purity of the isolated neutrophils was determined by May-Grunwald-Giemsa staining (40751ES02, Yea-sen). […]
To assess NET formation, neutrophils (2.5×10^5 cells) were seeded on coverslips coated with poly-L-lysine (P4707, Sigma) in 24-well plates for 30 min before adding 10% cancer cell CM, Sivelestat (10 μM), PMA (20 nM, Sigma), Cl-amidine (100 μM, Selleck) and/or DNase I (1 μg/ml). […] NET area quantification was performed using the DANA method (Rebernick et al., “DNA area and NETosis analysis (DANA): a high-throughput method to quantify neutrophil extracellular traps in fluorescent microscope images,” Biol. Proced. Online 20:7 (2018)). […]

In the case of `Cn1c(=O)oc2ccc(-c3ccc(C[C@@H](C#N)NC(=O)[C@@H]4CNCCCO4)cc3)cc21` [brensocatib, (2S)—N-{(1S)-1-cyano-2-[4-(3-methyl-2-oxo-2,3-dihydro-1,3-benzoxazol-5-yl)phenyl]ethyl}-1,4-oxazepane-2-carboxamide], the “formation of NETs” value is reported as “significantly reduced”.

Reference: patent US12697328B2, “Methods for treating metastasis with cathepsin C inhibitors” (Shanghai Institute of Nutrition and Health, Chinese Academy …, priority 2020, dated 2026)
